# Test results taken from patent US6403299B1, “DEAH-box proteins” (Aventis Research & Technologies GmbH & Co. KG, priority 1995, dated 2002).
# pEC50, pIC50: −log10 of the molar value. Like-named read-outs stand apart in the source and are kept apart here.
# Key:
# Format in all cases: cell-based, mouse
# A20R cells [1] = assay: Proliferation test 2 (3H-thymidine incorporation), A20R cells
# Method: (§1) 4×10^3 cells were pipetted into a volume of 100 μl of Iscove medium in 96-well round-bottom microtiter plates (Nunc). Test substances were applied in twice the concentration starting from the desired test concentration and 100 μl of this solution was pipetted into the cells. The plates were incubated for 48 hours at 37° C. and 10% CO2. The proliferation was determined by radiolabeling the DNA of dividing cells. To do this, after the incubation time 25 μl of ^3H-thymidine (10 μCi/ml; specific activity 29 Ci/mmol; Amersham) was added to each well and the mixture was incubated for a further 16 hours. To evaluate the test, the plates were harvested on glass fiber filters (Pharmacia) by means of a cell harvester (Skatron), unincorporated ^3H-thymidine being collected in separate waste flasks, and only cellular, DNA-bound radioactivity being measured. The filters were heat-sealed in plastic bags and after addition of 10 ml of scintillator (Pharmacia) sealed in counting cassettes for measurement. Measurement was carried out in a beta-counter (beta-plate system 1206 from Wallac). As indicated under Test 1, the alteration in proliferation of the test substances was calculated against the respective positive controls.
# (§2) Antiproliferative substances known from the literature were tested at different concentrations (as described in proliferation test 2) for their antiproliferative properties on A20R cells and A20.2J.
# (§3) The function of MDR proteins as secretory pumps can be inhibited by calcium channel blockers, which leads to an accumulation of the substance in the cell. Calcium channel blockers known from the literature and also MDR-associated substances were therefore added to both cell lines in order to check whether the resistant line overexpressed MDR proteins.
# (§4) The same test mixture was chosen in order to check whether A77 1726 is an MDR-transported molecule. Numbers are % inhibition of proliferation.
# A20.2J cells [2] = assay: Proliferation test 2 (3H-thymidine incorporation), A20.2J cells
# Method: as §1, §2, §3, §4
# A20R cells [3] = assay: Proliferation test 1 (cell counting, Eosin staining), A20R cells
# Method: Every 2nd or 3rd day, the cells were passaged in fresh medium to which the same concentration of A77 1726 was added. After culturing for 5 days, growth of the cells and a low dying-off rate (maximum 30% dead cells) was detectable, so the concentration of A77 1726 was increased stepwise. If the proliferation of the cells stagnated, the concentration of the last passage was used. […] 5×10^5 cells were incubated in 5 ml of Iscove medium in 6-well plates (Greiner) for 48 hours at 37° C. and 10% CO2. One well was set up as a positive reference value: for […]: cells in Iscove medium+100 μM A77 1726 Test substances in various concentrations were pipetted into the cells in the remaining wells. After the incubation time, the cells were resuspended in the well, and 100 μl of cell suspension were taken and diluted in 1% strength Eosin solution (1 g of Eosin yellowish from Riedel de Häen dissolved in 100 ml of sterile isotonic saline solution). The cells were counted in a Neubauer counting chamber and the fraction of dead cells (stained by Eosin) determined. The substance-induced alteration of proliferation was calculated relative to the respective positive control.
# A20.2J cells [4] = assay: Proliferation test 1 (cell counting, Eosin staining), A20.2J cells
# Method: A20.2J is a subline of the mouse B-cell lymphoma A20 (ATCC TIB-208) and described as a fusion line in the ATCC for the cell line LS 102.9 (ATCC HB-97). […] The cells were easy to culture as a nonadherent-growing cell line. 5×10^5 cells were incubated in 5 ml of Iscove medium in 6-well plates (Greiner) for 48 hours at 37° C. and 10% CO2. One well was set up as a positive reference value: for A20.2J: cells in Iscove medium Test substances in various concentrations were pipetted into the cells in the remaining wells. After the incubation time, the cells were resuspended in the well, and 100 μl of cell suspension were taken and diluted in 1% strength Eosin solution (1 g of Eosin yellowish from Riedel de Häen dissolved in 100 ml of sterile isotonic saline solution). The cells were counted in a Neubauer counting chamber and the fraction of dead cells (stained by Eosin) determined. The substance-induced alteration of proliferation was calculated relative to the respective positive control.
compound,measurement,setting,value
Cyclosporin A,% inhibition of A20R,A20R cells [1]; 0.25 μM,77.5%
same,% inhibition of A20.2J,A20.2J cells [2]; 0.25 μM,69.9%
CN(Cc1cnc2nc(N)nc(N)c2n1)c1ccc(C(=O)N[C@@H](CCC(=O)O)C(=O)O)cc1 [Methotrexate],inhibition at 0.15 µM,A20R cells [1]; Mus musculus; 0.15 μM,65.2%
same,inhibition at 0.15 µM,"A20.2J cells [2]; Mus musculus, A20/2J; 0.15 μM",75.9%
N.N.[Cl][Pt][Cl] [Cisplatin],% inhibition of A20R,A20R cells [1]; 10 μM,91.1%
same,% inhibition of A20.2J,A20.2J cells [2]; 10 μM,44.7%
"Cc1c(-c2ccc(-c3ccccc3F)cc2)nc2ccc(F)cc2c1C(=O)[O-].[Na+] [Brequinar Na^+ salt, brequinar]",cross-resistance of A20R cells (growth behavior) compared with A20.2J,A20R cells [3],cross-resistance
same,pIC50,"A20R cells [3]; proliferation test 1, brequinar",4.12 to 4.30
same,pIC50,"A20.2J cells [4]; proliferation test 1, brequinar, read-out: IC50 value of A20.2J",6.70
C/C(O)=C(\C#N)C(=O)Nc1ccc(C(F)(F)F)cc1 [A77 1726],% inhibition of proliferation,"A20R cells [1]; A20R + 62.5 μM A77 1726, verapamil 0 nM",10.3%
same,transport by MDR proteins,"A20R cells [1]; A20.2J and A20R cells, with verapamil 0-400 nM",not transported by MDR proteins
same,pIC50,"A20R cells [3]; Mus musculus, proliferation test 1, A77 1726 analogs",3.89
same,% inhibition of proliferation,"A20.2J cells [2]; A20.2J + 1.6 μM A77 1726, verapamil 0 nM",16.4%
same,pIC50,"A20.2J cells [4]; Mus musculus, A20/2J, proliferation test 1, A77 1726 analogs, read-out: IC50 value of A20.2J",5.52 to 5.70
same,pIC50,"A20.2J cells [4]; Mus musculus, read-out: 50% inhibition of the proliferation of the cells, A20.2J",5.70
COc1cccc2c1C(=O)c1c(O)c3c(c(O)c1C2=O)C[C@@](O)(C(=O)CO)C[C@@H]3O[C@H]1C[C@H](N)[C@H](O)[C@H](C)O1 [doxorubicin],inhibition at 0.3 µM,A20R cells [1]; Mus musculus; read-out: % inhibition of proliferation,9.1%
same,inhibition at 0.3 µM,"A20.2J cells [2]; Mus musculus, A20/2J; read-out: % inhibition of proliferation",2.7%
Cc1oncc1C(=O)Nc1ccc(C(F)(F)F)cc1 [leflunomide],times higher leflunomide concentrations tolerated by A20R than by A20.2J,A20R cells [3]; A20R versus A20.2J,30-40 times
same,ED50,A20R cells [3]; murine A20.2J cells resistant to high levels of leflunomide,130 μ
same,pEC50,"A20R cells [3]; resistant subline A20R, read-out: ED50 (the source's name)",3.89
same,ED50,A20.2J cells [4]; murine A20.2J cells,4 μ
same,pEC50,"A20.2J cells [4]; original cell line A20.2J, read-out: ED50 (the source's name)",5.40
COc1cccc2c1C(=O)c1c(O)c3c(c(O)c1C2=O)C[C@@](O)(C(C)=O)C[C@@H]3O[C@H]1C[C@H](N)[C@H](O)[C@H](C)O1 [daunorubicin],inhibition at 0.3 µM,"A20R cells [1]; Mus musculus, read-out: % inhibition of proliferation",6.8%
same,inhibition at 0.3 µM,"A20.2J cells [2]; Mus musculus, A20/2J, read-out: % inhibition of proliferation",10.7%
COc1c(C)c2c(c(O)c1C/C=C(\C)CCC(=O)O)C(=O)OC2 [Mycophenolic acid],inhibition at 0.15 µM,A20R cells [1]; Mus musculus; 0.15 μM,76.8%
same,inhibition at 0.15 µM,"A20.2J cells [2]; Mus musculus, A20/2J; 0.15 μM",89.8%
